Data on two molecules can be found in patent US6448405B1, “Steroid receptor modulator compounds and methods” (Ligand Pharmaceuticals Incorporated, priority 1994, dated 2002).

pIC50: −log10 of the molar value.

This test has as its target T1, human mineralocorticoid receptor (MR) (Homo sapiens, UniProt P08235).
T1 construct: expressed in transfected cells; host or cells: CV-1 cells, transient transfection
T1 sequence (P08235 1-984): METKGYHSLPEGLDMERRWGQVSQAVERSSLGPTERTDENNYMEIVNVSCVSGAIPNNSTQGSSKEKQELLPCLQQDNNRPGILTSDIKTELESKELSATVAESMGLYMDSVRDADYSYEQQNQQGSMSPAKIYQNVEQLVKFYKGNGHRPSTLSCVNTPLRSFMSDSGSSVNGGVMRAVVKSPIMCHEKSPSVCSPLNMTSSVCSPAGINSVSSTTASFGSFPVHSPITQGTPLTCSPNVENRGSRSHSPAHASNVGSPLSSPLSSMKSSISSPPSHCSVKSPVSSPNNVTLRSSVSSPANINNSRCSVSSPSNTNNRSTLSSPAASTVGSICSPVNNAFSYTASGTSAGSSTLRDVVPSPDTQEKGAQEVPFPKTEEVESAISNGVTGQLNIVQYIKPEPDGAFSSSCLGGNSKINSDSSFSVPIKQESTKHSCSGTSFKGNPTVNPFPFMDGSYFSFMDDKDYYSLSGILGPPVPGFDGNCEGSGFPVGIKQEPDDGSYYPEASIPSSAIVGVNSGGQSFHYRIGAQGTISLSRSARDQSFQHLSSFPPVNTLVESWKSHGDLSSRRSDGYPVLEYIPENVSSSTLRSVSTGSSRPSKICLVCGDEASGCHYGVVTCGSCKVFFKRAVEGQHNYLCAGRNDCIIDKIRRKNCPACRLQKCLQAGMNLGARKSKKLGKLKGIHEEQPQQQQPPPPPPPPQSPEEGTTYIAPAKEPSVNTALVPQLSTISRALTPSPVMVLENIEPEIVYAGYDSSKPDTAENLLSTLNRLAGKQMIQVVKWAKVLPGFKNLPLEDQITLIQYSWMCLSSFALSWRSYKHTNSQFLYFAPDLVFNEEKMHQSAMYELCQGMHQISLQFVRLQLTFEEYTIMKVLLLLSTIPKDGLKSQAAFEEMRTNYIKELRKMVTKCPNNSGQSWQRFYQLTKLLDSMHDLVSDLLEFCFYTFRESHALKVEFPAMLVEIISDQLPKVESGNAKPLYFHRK
Nature of the test: Co-transfection assay, MR antagonist activity, CV-1 cells (pRShMR). The test is classed as cell-based. The conditions noted are these: antagonist mode; for MR Antagonist CV-1 Cells Efficacy (%): Table 4, % maximal inhibition; for pIC50: aldosterone at its EC50, IC50, read-out: MR Antagonist CV-1 Cells Potency.

For the molecule `CC1=CC(C)(C)Nc2ccc3c(c21)C(c1cccc(C(F)(F)F)c1)Oc1ccccc1-3` (racemic) [Compound 195, (R/S) 1,2-Dihydro-2,2,4-trimethyl-5-[3-(trifluoromethyl)phenyl]-5H-chromeno[3,4-f]quinoline], the “MR Antagonist CV-1 Cells Efficacy (%)” value is reported as 47% and the pIC50 was 5.72.

Take `CC1=CC(C)(C)Nc2ccc3c(c21)C(c1ccccc1)Oc1ccccc1-3` (racemic) [Compound 161, (R/S)-1,2-Dihydro-2,2,4-trimethyl-5-phenyl-5H-chromeno[3,4-f]quinoline]: the “MR Antagonist CV-1 Cells Efficacy (%)” value is listed as 58% and the pIC50 was 6.00.
